Data taken from PMC6928678, “Simplified Head-to-Tail Cyclic Polypeptides as Biomaterial-Associated Antimicrobials with Endotoxin Neutralizing and Anti-Inflammatory Capabilities” (International Journal of Molecular Sciences, 2019).
Converted amounts (≈) assume the structure as drawn. Where a SMILES comes first, the peptide text is derived from it. [ ]: non-standard residue; d: D form. Orn = NCCC[C@H](N)C(=O)O

Experiments:
[1] = RP-HPLC used as measure of hydrophobicity; 4.6 mm × 250 mm Venusil MP C18-5 column, 220 nm, linear acetonitrile gradient 15% to 45% in 30 min, 0.1% trifluoroacetic acid, 1 mL/min
Text: In this experiment, cyclic, linear and D-proline antimicrobial peptides were designed based on the IR-rich template sequence (IR)nP(IR)nP (n = 1, 2 and 3). […] The […] molecular weights of the peptides were identified using mass spectrometry. […] The hydrophobicity of the peptides in solution is dependably mirrored by the HPLC retention times.

E. coli 25922 = assay: microbe, parasite or virus in culture; type: cell-based, Escherichia coli; conditions: 25922, 20 h
Protocol: (§1) The test strains, including Gram-negative E. coli ATCC25922, E. coli ATCC 1005, S. typhimurium C7731, P. aeruginosa ATCC 27853, S. Typhimurium 14028, Gram-positive S. aureus ATCC29213, S. aureus ATCC 25923, S. epidermidis ATCC 12228 and S. aureus 43300, were obtained from the School of Veterinary Medicine, Northeast Agricultural University (Harbin, China).
(§2) Briefly, the bacteria were incubated overnight at 37 °C with constant shaking at 220 rpm, then were transferred to new MH broth (MHB) medium until they reached the logarithmic phase of growth. The bacteria were then diluted to 10^5 (CFU)/mL in MHB. The peptides were dissolved and diluted in 0.01% acetic acid and 0.2% bovine serum albumin (BSA) at various concentrations (0.5–128 μM) in each well of sterile 96-well plates and incubated for 20 h at 37 °C. […] The test was repeated three times.

E. coli UB 1005 = assay: microbe, parasite or virus in culture; type: cell-based, Escherichia coli; conditions: UB 1005, 20 h
Protocol: as §1, §2

[2] = system: gram-negative strains tested; assay: Geometric mean of MICs, gram-negative strains; type: cell-based; conditions: 5 gram-negative strains; >128 apparently counted as 256; read-out: nGM (–), geometric mean of the MICs against gram-negative strains
Protocol: as §2

[3] = system: all the 9 bacteria tested; assay: Geometric mean of MICs, all 9 bacteria; type: cell-based; conditions: for GM MIC (range of Gram-negative and Gram-positive geometric means): Table 2; for tGM, geometric mean of the MICs against all the 9 bacteria: all 9 bacteria tested
Protocol: as §2

[4] = system: human red blood cells (hRBCs); assay: Hemolysis assay; type: cell-based; conditions: red cells of human, 1 h
Protocol: Figure 2 (A) Hemolytic activity of the engineered peptides against human red blood cells (hRBCs). The hRBCs were incubated with equal amounts of the respective peptides dissolved in PBS for 1 h at 37 °C. (B) Cytotoxicity of the engineered peptides against RAW264.7. […] Data shown are three independent experiments.
The hemolytic activity of the peptides is determined by measuring the amount of hemoglobin released during the lysis of human erythrocytes at different concentrations of AMPs. Briefly, fresh, healthy human red blood cells (hRBCs) were collected and then washed three times with phosphate-buffered saline (PBS) buffer (pH 7.2) and centrifuged at 1000× g for 5 min. Each 50 µL sample of hRBCs was incubated with 50 µL of the respective peptide dissolved in PBS in a well of a 96-well plate for 1 h at 37 °C. After incubation, the samples were centrifuged at 1000× g for 5 min and the supernatants (50 μL) were transferred to a new 96-well microplate. The release of hemoglobin was measured by monitoring the OD at 570 nm (Tecan, Salzburg, Austria). Negative (hRBCs without AMP treatment) and positive (hRBCs treated with 0.1% TritonX-100) controls were used. The concentration of peptide that caused 5% hemolysis was considered the minimal hemolysis concentration (MHC). The test was repeated three times. The percent hemolysis was calculated using the following formula:(2) Percent hemolysis=A−A0/At−A0× 100% A0 and At represent 0% and 100% hemolysis as measured in 10 mM PBS and 0.2% Triton X-100, respectively.

E. coli UB1005 = assay: Outer membrane permeability assay (NPN uptake); type: cell-based; conditions: E. coli UB1005, concentrations greater than 4 μM; relative to 10 μg/mL polymyxin B
Protocol: Figure 4 Outer membrane permeabilization assays of the engineered peptides. A 2 mL volume of E. coli UB1005 cells, diluted to 10^5 CFU/mL in 5 mM sodium HEPES buffer, was added to a quartz cuvette containing NPN to give a final concentration of 10 μM. Aliquots of peptides were added to the cuvette, and the fluorescence was recorded until there was no further increase in fluorescence. Data shown are three independent experiments.
The effect of antimicrobial peptides on the outer leaflet of the cell membrane was examined using the extracellular membrane-sensitive fluorescent dye NPN and the antibiotic-sensitive mutant E. coli UB 1005. […] The background fluorescence was measured (excitation λ = 350 nm, emission λ = 420 nm) with an F-4500 fluorescence spectrophotometer (Hitachi, Tokyo, Japan). […] The fluorescence was recorded in terms of the time needed until there was no further increase in fluorescence after mixing several concentrations (0.5–64 μM) of peptides. […] Values were converted to percent NPN uptake using the following equation:(3) %NPN uptake=Fobs−F0/F100−F0× 100% where Fobs is the observed fluorescence at a given peptide concentration, F0 is the initial fluorescence of NPN in E. coli UB1005 cells and F100 is the fluorescence of NPN in UB1005 cells upon the addition of 10 μg/mL polymyxin B, which had strong outer membrane permeability.

[5] = system: TNF-α production in RAW264.7 cells; assay: LPS-stimulated TNF-α production (ELISA); type: cell-based, mouse
Protocol: Figure 11 The inhibitory effects of OIR3, IR3, DIR3 and GS on LPS-stimulated TNF-α production in RAW264.7 cells. The levels of TNF-α in the […] were determined by ELISA using a commercial kit for mouse TNF-α. Data shown are the mean ± SD of three independent experiments.
LPS-activated inflammatory responses are always accompanied by the production of inflammatory cytokines, such as tumor necrosis factor-alpha (TNF-α). Briefly, 2 × 10^5 cells/well RAW264.7 cells were plated in 96-well plates and stimulated with LPS (100 ng/mL) in the absence or presence of the peptides (1–32 μM) for 18 h at 37 °C. The levels of TNF-α were determined using an ELISA kit (Boster, Wuhan, China) in accordance with the manufacturer’s instructions. TNF-α was measured by determining the absorbance at 540 nm.

Structure (SMILES)	RT (retention time) [1]	MIC (E. coli 25922)	MIC (E. coli UB 1005)	MIC [2]	GM MIC (range of Gram-negative and Gram-positive geometric means) [3]	tGM, geometric mean of the MICs against all the 9 bacteria [3]	MHC5, minimum hemolytic concentration that induced ≥5% hemolysis [4]	outer membrane permeability (% NPN uptake) (E. coli UB1005)	inhibition of LPS-stimulated TNF-α expression [5]
CC[C@H](C)[C@@H]1NC(=O)[C@H](CCCNC(=N)N)NC(=O)[C@H]([C@@H](C)CC)NC(=O)[C@@H]2CCCN2C(=O)[C@H](CCCNC(=N)N)NC(=O)[C@H]([C@@H](C)CC)NC(=O)[C@H](CCCNC(=N)N)NC(=O)[C@H]([C@@H](C)CC)NC(=O)[C@H](CCCNC(=N)N)NC(=O)[C@H]([C@@H](C)CC)NC(=O)[C@@H]2CCCN2C(=O)[C@H](CCCNC(=N)N)NC(=O)[C@H]([C@@H](C)CC)NC(=O)[C@H](CCCNC(=N)N)NC1=O [OIR3] (cyclo(IRIRIRPIRIRIRP))	12.64 min	2 µM (≈ 3.62 µg/mL)	2 µM (≈ 3.62 µg/mL)	3.5 µM (≈ 6.34 µg/mL)	3.5 to 4.0 µM	3.7 µM	>128 µM	more than 70%	more strongly inhibited
CC(C)C[C@@H]1NC(=O)[C@H](CCCN)NC(=O)[C@H](C(C)C)NC(=O)[C@@H]2CCCN2C(=O)[C@@H](Cc2ccccc2)NC(=O)[C@H](CC(C)C)NC(=O)[C@H](CCCN)NC(=O)[C@H](C(C)C)NC(=O)[C@@H]2CCCN2C(=O)[C@@H](Cc2ccccc2)NC1=O [GS, gramicidin S, reference compound] (cyclo(V[Orn]L[dF]PV[Orn]L[dF]P))		4 µM (≈ 4.57 µg/mL)	4 µM (≈ 4.57 µg/mL)	6.1 µM (≈ 6.96 µg/mL)	2 to 6.1 µM	3.7 µM	8 µM		
